Consider one compound from patent US20240208950A1, “COMPOSITIONS AND METHODS FOR TREATMENT OF CERVICAL AND OVARIAN CANCER” (SOUTH DAKOTA BOARD OF REGENTS, priority 2021, published 2024).

Holding throughout (format): cell-based, human
Assay [1] deals with SiHa cells. Briefly: Cell invasion assay (Boyden chamber and xCELLigence), SiHa. The text has this: FIGS. 8A and 8B show the effect of ORM-Br on invasion of CaSki (FIG. 8A) and SiHa (FIG. 8B) cell lines in Boyden chamber and xCELLigence assay. The images represent the invaded cells of control and ORM-Br-treated CaSki and SiHa cells as determined by Boyden Chamber kit. The magnification was at 20 for the images of FIGS. 8A and 8B.

The subject of assay [2] is β-catenin in CaSki cells. The experiment in a line: Western blot of β-catenin in nuclear and cytoplasmic extracts, CaSki. The settings on record: 15 μM, 24 hours. As to the method: In the Example shown at FIGS. 9A-9E, cells were subjected to treatment with 15 μM concentration of ORM-Br for 24 hours, nuclear extracts were prepared and western blot analysis were used to detect the protein levels of β-catenin. […] Western blots were reprobed with β-actin and Histone H3 antibodies as an internal control.
The nuclear and cytoplasmic lysates were prepared using respective buffers. The cell lysates (40 μg) were subjected to SDS-PAGE and blotted on PVDF membrane. The membranes were further blocked in 5% milk diluted in 1×TBST solution for 1 hour and incubated overnight in primary antibodies. The following day, the membranes were washed and incubated with secondary antibodies for 1 hour, washed again and developed on a UVP system using chemi-luminiscent reagents.
The EMT process in a cell is driven by growth factors or other signaling proteins such as Wnt/beta-catenin and extracellular matrix component that may stimulate cellular growth and migration. The effect of Br-ORM on β-catenin signaling was examined.
FIG. 15. Effect OF Br-ORM on β-catenin signaling and molecular docking of Br-ORM with β-catenin. Effect of Br-ORM on β-catenin distribution in cytoplasm and nucleus of CaSki and SiHa cells. […] Effect of Br-ORM on β-catenin localization in CaSki cells as determined by confocal microscopy (FIG. 15B(i)-(ii)). […]
(In general: In western blotting, separated proteins are transferred to a membrane and probed.)

Assay [3] concerns β-catenin in CaSki cells. The experiment in a line: β-catenin degradation with cyclohexamide (western blot, pulse chase), CaSki. The conditions noted are these: ORM-Br. Here is the method: A western blot analysis was conducted to determine the effect of ORM-Br on β-catenin degradation. […] Protein lysates were prepared and subjected to western blot analysis to ascertain the levels of protein of β-catenin in cyclohexamide-treated cells (FIG. 3A) and in ORM-Br and cyclohexamide-treated cells (FIG. 3B).

Assay [4] relates to HPV16 E6 and E7 transcripts in CaSki cells. Briefly: qPCR of HPV E6 and HPV E7 transcripts, CaSki. The settings on record: 18 hours. Here is the method: (§1) RNA from cervical cancer cells was isolated using Qiagen kit and quantified using NanoDrop instrument 2000 (Thermo Scientific, Waltham, MA, USA). To analyze the expression of miR-200a in control and Br-ORM treated cells, 100 ng total RNA was reverse transcribed into cDNA using specific primers designed for miRNA analysis (Applied Biosystems, Foster City, CA, USA). The expression of this miRNAs was determined by qRT-PCR using the Taqman PCR master mixture and specific primers designed for detection of mature miRNAs (Applied Biosystems). The expression of miRNA was normalized with the expression of endogenous control, RNU6B.
HPV infections are associated with a majority of cervical cancer cases. The effect of Br-ORM on the expression of HPV E6 and HPV E7 oncogenes in CaSki and SiHa cells was investigated. […] Br-ORM repressed both transcription and translation of E6 and E7 oncogene in cervical cancer cells.
(§2) FIG. 16. Effect of Br-ORM on HPV oncoproteins and tumor suppressor miR-200 in cervical cancer cells. […] Increase expression of tumor suppressor miR200a in cervical cancer cells treated with BR-ORM for 24 hours in comparison to non-treated controls was determined through real time PCR (FIG. 16A(v)-(vii)). […]
A general note: In qPCR the cycle at which signal appears reflects the starting amount.

Assay [5] deals with miR-200a in cervical cancer cells. The experiment in a line: qRT-PCR of miR-200a. The settings on record: qPCR, 24 hours. As to the method: as §1
Modulations of microRNAs are involved in cervical cancer development, progression and metastasis. It is reported that expression of β-catenin is directly regulated by miR-200a. Br-ORM targets β-catenin signaling, therefore, to further understand the underlying mechanisms, the expression of miR-200a following the Br-ORM treatment was evaluated.
as §2

`COc1ccc2c(c1)OC(C)(C)C(c1ccc(Br)cc1)C2c1ccc(OCCN2CCCC2)cc1` (stereo not drawn) [ORM-Br]: in assay [1], the cell invasion result is given as “inhibits the invasion”. The “nuclear β-catenin expression” value in assay [2] was “decrease in expression of nuclear β-catenin”; in assay [2] (listed as Br-ORM), “inhibited nuclear β-catenin”. For the same compound, in assay [3], the “protein levels of β-catenin relative to cyclohexamide treatment” value was “significant decrease in protein levels of β-catenin”. Besides, the “HPV16 E6 and E7 transcripts” value in assay [4] is “significant downregulation”. Further, in assay [5], the “expression of miR-200a” value is reported as “significant (P<0.05) increase”.
